In patent publication EP0837870B1, “SYNTHETIC MODIFICATION TO SPINOSYN COMPOUNDS” (Dow AgroSciences LLC, priority 1995, dated 1997):

Tests used:
Format in all cases: in vivo
[1] = system: tobacco budworm (Heliothis virescens); experiment: Activity against tobacco budworm (TBW), sprayed diet cups with eggs
Procedure: (§1) In conducting evaluations of insecticidal activity, each test compound was formulated as a 400 ppm solution, and this solution was then diluted with water to give lesser concentrations. The 400 ppm solution was prepared by combining 19.2 mL of .05% solution of Tween 20 (polyoxyethylene (20) sorbitan monolaurate) in water with a solution of 8 mg of the compound in .8 mL of acetone/EtOH (9/1).
Activity against tobacco budworm (Heliothis virescens) was evaluated as follows. A general purpose lepidoptera artificial diet was diluted to half strength with a 5% non nutritive agar. 8 mL of this diet material was dispensed into each one ounce diet cup. One hour prior to treatment 18 to 20 eggs were dispensed onto the diet surface. The cups were then sprayed with formulated material through a flat-fan nozzle. […] Treated cups were air dried prior to sealing with plastic caps. The cups were held for 6 days at room temperature. Activity was then rated based on the total number of live and dead larvae, and on the size of live larvae.

[2] = system: Stomoxys calcitrans (stable fly); experiment: Adult stable fly test, serum-saturated dental wick; conditions: readings at 24 and 48 hours, which one is reported is not stated; for Percentage of ASF killed at 100 ppm: 100 ppm in bovine serum; for Percentage of ASF killed at 10 ppm: 10 ppm in bovine serum
Procedure: The compound to be evaluated was dissolved in 1 part acetone/1 part ethanol to provide a stock solution of the compound at a concentration of 5,000 ppm; this solution was shaken for 15 minutes on a sonicator. Portions of the stock solution were placed in 15 ml test tubes, and portions of bovine serum were added to provide the desired dilution of the test compound. A dental wick was placed in each test tube and the serum allowed to saturate the wick.
For the adult stable fly test, the saturated wick was placed on a filter paper in a petri dish, and approximately 10 chilled live, hungry stable flies were placed on the center of the dish bottom. The dish was covered and allowed to incubate at 27°C and 60% relative humidity for 48 hours. Mortality readings were made at each of 24 and 48 hours, and adjusted for any mortality in the vehicle control to determine percent efficacy against adult stable fly.

[3] = system: two spotted spider mite (Tetranychus urticae); experiment: Activity against two spotted spider mite (TSSM), sprayed infested squash plants; conditions: RATE 400 (ppm), three days after treatment, 4320 min
Procedure: as §1
Activity against cotton aphid (Aphis gossypii) and two spotted spider mite (Tetranychus urticae) was evaluated as follows. Golden crookneck squash plants were grown to the expanded cotyledon stage (about 6 to 8 days). The plants were infested with cotton aphids and two spotted spider mites 16 to 24 hours before application of the test material by transfer of infested foliage cut from a stock colony. Immediately prior to spray application of the test material the transfer foliage is removed from the squash plants. The test is run using concentrations of 400 ppm and 50 ppm. The plants are sprayed with test solution using an atomizing sprayer at 17 psi. Both surfaces of the leaves are covered until runoff, and then allowed to dry. Activity of each compound was determined three days after treatment. Activity was rated as a percent based on the mites/aphids present in plants sprayed with solvent alone.

`CCC1CCCC(OC2CCC(N(C)C)C(C)O2)C(C)C(=O)C2=CC3C4CC(OC5OC(C)C(OC)C(OC)C5OC)CC4[C@@H](OC(=O)C(Cl)(Cl)Cl)[C@@H](OC(=O)C(Cl)(Cl)Cl)C3C2CC(=O)O1` (stereo partly drawn) [Example F13b, (5S,6R)-5,6-bis(trichloroacetoxy) Spinosyn A] was tested, and the “% MORTALITY” value ([1]; RATE 400 (ppm), 6 days) was 60%.
In the case of `CCC1CCCC(OC2CCC(N(C)C)C(C)O2)C(C)C(=O)[C@H]2CC3C4CC(OC5OC(C)C(OC)CC5OC)CC4CCC3C2CC(=O)O1` (stereo partly drawn) [Example D3, (14S)-5,6,13,14-Tetrahydro-3'-deoxy Spinosyn J], the “% MORTALITY” value ([1]; RATE 64 (unit not given), 8640 min) is reported as 95% and the “Percentage of ASF killed at 100 ppm” value [2] is reported as 100%.
With (5S,6R)-Epoxy-Spinosyn Q [Example F25] the “% MORTALITY” value ([1]; RATE 400 (ppm), 6 days) was 100%.
In the case of “dichloroketene acetal of (5S,6R)-5,6-dihydroxy Spinosyn A [Example F13a]”, the “% MORTALITY” value ([1]; RATE 400 (ppm), 6 days) is reported as 100%.
With `CCC1CCCC(OC2CCC(N(C)C)C(C)O2)C(C)C(=O)C2=CC3C4CC(OC5OC(C)C(OC)C(OC)C5OC(=O)c5ccc(C(F)(F)F)cc5)CC4[C@@]4(C)O[C@H]4C3C2CC(=O)O1` (stereo partly drawn) [Example A2, (5S,6R)-Epoxy-2'-O-(p-trifluoromethyl)benzoyl Spinosyn Q] the “% MORTALITY” value ([1]; RATE 400 (ppm), 6 days) was 100% and the “Percentage of ASF killed at 100 ppm” value [2] was 100%.
`CCC1CCCC(OC2CCC(N(C)C)C(C)O2)C(C)C(=O)C2=CC3C4CC(OC5OC(C)C(OC)C(OC)C5OC)CC4[C@@H](Br)[C@H](Br)C3C2CC(=O)O1` (stereo partly drawn) [Example F14, (5R,6R)-5,6-Dibromo Spinosyn A] was tested, and the “% MORTALITY” value ([1]; RATE 400 (ppm), 6 days) was 60% and the “Percentage of ASF killed at 100 ppm” value [2] was 100%.
In the case of `CC[C@H]1CCC[C@H](O[C@H]2CC[C@H](NC)[C@@H](C)O2)[C@@H](C)C(=O)C2=C[C@H]3[C@@H]4C[C@H](O[C@@H]5O[C@@H](C)[C@H](OC)[C@@H](OC)[C@H]5OC)C[C@H]4CC[C@H]3[C@@H]2CC(=O)O1` [Example F24, 5,6-Dihydro Spinosyn B], the “% MORTALITY” value ([1]; RATE 400 (ppm), 6 days) is reported as 100%, the “Percentage of ASF killed at 100 ppm” value [2] is reported as 100% and the “% MORTALITY” value [3] is reported as 100%.
In the case of `CCCOC1C(OC2CC3CCC4C5CC(=O)OC(CC)CCCC(OC6CCC(N(C)C)C(C)O6)C(C)C(=O)C5=CC4C3C2)OC(C)C(OC)C1OC` (stereo not shown) [Example A8, 5,6-Dihydro-2'-O-n-propyl Spinosyn H], the “% MORTALITY” value ([1]; RATE 400 (ppm), 6 days) is reported as 100%, the “Percentage of ASF killed at 100 ppm” value [2] is reported as 100% and the “% MORTALITY” value [3] is reported as 100%.
For `CCOC1C(OC)C(C)OC(OC2CC3CCC4C5CC(=O)OC(CC)CCCC(OC6CCC(N(C)C)C(C)O6)C(C)C(=O)C5=CC4C3C2)C1OC` (stereo not shown) [Example A3, 5,6-Dihydro-3'-O-ethyl Spinosyn J], the “% MORTALITY” value ([1]; RATE 400 (ppm), 6 days) was 100% and the “% MORTALITY” value [3] was 100%.
For `CC[C@H]1CCC[C@H](O)[C@@H](C)C(=O)C2=C[C@H]3[C@@H]4C[C@H](O[C@@H]5O[C@@H](C)[C@H](OC)[C@@H](OC)[C@H]5OC)C[C@H]4CC[C@H]3[C@@H]2CC(=O)O1` [Example F20, 5,6-Dihydro Spinosyn A 17-Psa], the “Percentage of ASF killed at 100 ppm” value [2] was less than 50%.
In the case of `CCC1CCCC(OC2CCC(N(C)C)C(C)O2)C(C)C(=O)C2=CC3C4CC(OC5OC(C)C(OC)C(OC)C5OC)CC4[C@@H](SC)[C@H](OC(C)=O)C3C2CC(=O)O1` (stereo partly drawn) [Example F16, (5R,6R)-5-Acetoxy-6-thiomethoxy Spinosyn A], the “% MORTALITY” value ([1]; RATE 400 (ppm), 6 days) is reported as 100% and the “Percentage of ASF killed at 100 ppm” value [2] is reported as 100%.
`CCC1CCCC(OC2CCC(N(C)C)C(C)O2)C(C)C(=O)C2=CC3C4CC(O)CC4CCC3C2CC(=O)O1` (stereo not shown) [Example F19, 5,6-Dihydro Spinosyn A 9-Psa] was tested, and the “% MORTALITY” value ([1]; RATE 400 (ppm), 6 days) was 100%.
For `CCC1CCCC(O[Si](C)(C)C)C(C)C(=O)C2=CC3C4CC(OC5OC(C)C(OC)C(OC)C5OC)CC4C4OC4C3C2CC(=O)O1` [Example E2, (5S,6R)-5,6-Epoxy-17-O-trimethylsilyl Spinosyn A 17-Psa], the “% MORTALITY” value ([1]; RATE 80 (unit not given), 8640 min) was 35%.
With `CCC1CCCC(OC2CCC(N(C)C)C(C)O2)C(C)C(=O)C2=CC3C4CC(OC5OC(C)C(OC)C(OC)C5OC)CC4C[C@H](O)C3C2CC(=O)O1` (stereo partly drawn) [Example F15a, (5S)-5,6-dihydro-5-hydroxy Spinosyn A] the “% MORTALITY” value ([1]; RATE 400 (ppm), 6 days) was 100%.
With `CCOC1C(OC2CC3CCC4C5CC(=O)OC(CC)CCCC(OC6CCC(N(C)C)C(C)O6)C(C)C(=O)C5=CC4C3C2)OC(C)C(OC)C1OC` (stereo not shown) [Example A7, 5,6-Dihydro-2'-O-ethyl Spinosyn H] the “% MORTALITY” value ([1]; RATE 400 (ppm), 6 days) was 100%, the “Percentage of ASF killed at 100 ppm” value [2] was 100% and the “% MORTALITY” value [3] was 100%.
In the case of `CC[C@H]1CCC[C@H](O[C@H]2CC[C@H](N(C)C)[C@@H](C)O2)[C@@H](C)C(=O)[C@@H]2C[C@@H]3[C@@H](CC[C@@H]4C[C@@H](O[C@@H]5O[C@@H](C)[C@H](OC)[C@@H](OC)[C@H]5OC)C[C@H]43)[C@@H]2CC(=O)O1` [Example D2, (14R)-5,6,13,14-Tetrahydro Spinosyn A], the “Percentage of ASF killed at 10 ppm” value [2] is reported as less than 50% and the “Percentage of ASF killed at 100 ppm” value [2] is reported as 100%.
`CC[C@H]1CCC[C@H](O[C@H]2CCC(=O)[C@@H](C)O2)[C@@H](C)C(=O)C2=C[C@H]3[C@@H]4C[C@H](O[C@@H]5O[C@@H](C)[C@H](OC)[C@@H](OC)[C@H]5OC)C[C@H]4[C@@H](Br)[C@H](Br)[C@H]3[C@@H]2CC(=O)O1` [Example F11a, (5R,6R)-5,6-dibromo-4''-keto Spinosyn A] was tested, and the “Percentage of ASF killed at 100 ppm” value [2] was less than 50%.
In the case of `CCC1CCCC(OC2CCC(N(C)C)C(C)O2)C(C)C(=O)C2=CC3C4CC(OC5OC(C)C(OC)C(OC)C5O)CC4CCC3C2CC(=O)O1` (stereo not shown) [Example F22, 5,6-Dihydro Spinosyn H], the “% MORTALITY” value ([1]; RATE 400 (ppm), 6 days) is reported as 100% and the “Percentage of ASF killed at 100 ppm” value [2] is reported as 100%.
With `CCC1CCCC(OC2CCC(N(C)C)C(C)O2)C(C)C(=O)C2=CC3C4CC(OC5OC(C)C(OC)C(OC)C5OC)CC4[C@@]4(C)O[C@H]4C3C2CC(=O)O1` (stereo partly drawn) [Example F8a, (5S,6R)-Epoxy Spinosyn D] the “% MORTALITY” value ([1]; RATE 400 (ppm), 6 days) was 100% and the “% MORTALITY” value [3] was 90%.
In the case of `CCC1CCCC(OC2CCC(N(C)C)C(C)O2)C(C)C(=O)C2=CC3C4CC(OC5OC(C)C(OC)C(OC)C5OC)CC4[C@@H](S(C)(=O)=O)[C@H](OC(C)=O)C3C2CC(=O)O1` (stereo partly drawn) [Example F17, (5R,6R)-5-Acetoxy-6-methylsulfonyl Spinosyn A], the “% MORTALITY” value ([1]; RATE 400 (ppm), 6 days) is reported as 100% and the “Percentage of ASF killed at 100 ppm” value [2] is reported as 100%.
With “5,6-cis Dihydroxy-5,6-dihydro Spinosyn B [Example F12]” the “% MORTALITY” value ([1]; RATE 400 (ppm), 6 days) was 100% and the “Percentage of ASF killed at 100 ppm” value [2] was 100%.
In the case of `CCCCOC1C(OC)C(C)OC(OC2CC3CCC4C5CC(=O)OC(CC)CCCC(OC6CCC(N(C)C)C(C)O6)C(C)C(=O)C5=CC4C3C2)C1OC` (stereo not shown) [Example A5, 5,6-Dihydro-3'-O-n-butyl Spinosyn J], the “% MORTALITY” value ([1]; RATE 400 (ppm), 6 days) is reported as 100%.
In the case of “(5R,6R)-5,6-dibromo Spinosyn B [Example F11b]”, the “% MORTALITY” value ([1]; RATE 400 (ppm), 6 days) is reported as 100% and the “Percentage of ASF killed at 100 ppm” value [2] is reported as 100%.
With `CC[C@H]1CCC[C@H](O)[C@@H](C)C(=O)C2=C[C@H]3[C@@H]4C[C@H](O[C@@H]5O[C@@H](C)[C@H](OC)[C@@H](OC)[C@H]5OC)C[C@H]4C(Br)C(Br)[C@H]3[C@@H]2CC(=O)O1` (stereo partly shown) [Example F5, 5,6-Dibromo Spinosyn A 17-Psa] the “Percentage of ASF killed at 10 ppm” value [2] was less than 50%.
With “(5R,6R)-6-Bromo-5-hydroxy Spinosyn J [Example F18]” the “% MORTALITY” value ([1]; RATE 400 (ppm), 6 days) was 100% and the “Percentage of ASF killed at 100 ppm” value [2] was 100%.
In the case of 5,6-Dihydro Spinosyn J [Example F21], the “% MORTALITY” value ([1]; RATE 400 (ppm), 6 days) is reported as 100% and the “Percentage of ASF killed at 100 ppm” value [2] is reported as 100%.
With `CCCOC1C(OC)C(C)OC(OC2CC3CCC4C5CC(=O)OC(CC)CCCC(OC6CCC(N(C)C)C(C)O6)C(C)C(=O)C5=CC4C3C2)C1OC` (stereo not shown) [Example A4, 5,6-Dihydro-3'-O-n-propyl Spinosyn J] the “% MORTALITY” value ([1]; RATE 400 (ppm), 6 days) was 100% and the “% MORTALITY” value [3] was 100%.
In the case of “5,6-Dihydro Derivative of Compound 9-O-(2,3,4-Tri-O-ethyl-α-L-rhamnosyl) Spinosyn A 9-Psa [Example A1]”, the “% MORTALITY” value ([1]; RATE 400 (ppm), 6 days) is reported as 100% and the “% MORTALITY” value [3] is reported as 100%.
